Results taken from patent US11648254B2 (Kumquat Biosciences Inc., priority 2021, dated 2023).
Like-named read-outs stand apart in the source and are kept apart here.

Tests used:
[1] = target: SOS1 (Homo sapiens (Human), UniProt Q07889); assay: Ras-SOS interaction assay (HTRF); assay type: biochemical
[2] = tested on: MIA PaCa-2 cells (K-Ras G12C); assay: Ras-SOS cellular growth inhibition assay (CellTiter-Glo, 3D); assay type: cell-based; details: Homo sapiens
Procedure, shortened: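 MIA PaCa-2 cells grown in ultra-low-attachment plates (3D) in DMEM/Ham's F12 with 10% FCS and 2.5% horse serum, treated the day after seeding with a 9-point 3-fold compound series for about 5 days. Viability by CellTiter-Glo luminescence; IC50 from four-parameter fit.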

[3] = tested on: NCI-H1975 cells (EGFR T790M L858R); assay: EGFR-SOS cellular inhibition assay (CellTiter-Glo, 3D); assay type: cell-based; details: Homo sapiens
[4] = K-RasG13D utilized, read-out: IC50 inhibition of SOS
[5] = K-RasG13D, read-out: IC50 value against SOS1
[6] = MIA PaCa-2, 120 h, MIA PaCa-2, 3D proliferation, about 5 days, read-out: Bio-Cell-Prolif-3D (MiaPaca2 IC50)
[7] = MIA PaCa-2, MIA PaCa-2, read-out: IC50 in inhibiting MIA PaCa-2 cell growth
[8] = 120 h, NCI-H1975, 3D proliferation, about 5 days, read-out: Bio-Cell-Prolif-3D (H1975 IC50)
[9] = NCI-H1975, EGFR T790M L858R, read-out: IC50 in inhibiting growth of NCI-H1975 cell line

Sequence of SOS1 (Q07889 564-1049): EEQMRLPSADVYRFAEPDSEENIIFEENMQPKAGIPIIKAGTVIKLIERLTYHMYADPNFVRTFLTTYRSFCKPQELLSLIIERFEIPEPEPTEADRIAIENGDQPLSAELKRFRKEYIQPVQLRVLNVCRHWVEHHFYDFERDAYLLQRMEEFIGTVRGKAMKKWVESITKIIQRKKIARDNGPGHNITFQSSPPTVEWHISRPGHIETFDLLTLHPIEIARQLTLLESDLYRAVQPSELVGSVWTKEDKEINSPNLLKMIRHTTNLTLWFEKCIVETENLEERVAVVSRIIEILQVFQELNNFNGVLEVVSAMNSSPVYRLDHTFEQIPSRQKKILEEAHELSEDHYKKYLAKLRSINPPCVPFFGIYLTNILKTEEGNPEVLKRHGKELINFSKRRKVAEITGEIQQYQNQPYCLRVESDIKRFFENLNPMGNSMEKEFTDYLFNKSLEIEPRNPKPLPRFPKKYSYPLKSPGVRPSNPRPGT

IC50 [1, 4] [nM] | IC50 [1, 5] [nM] | IC50 [2, 6] [nM] | IC50 [2, 7] [nM] | IC50 [3, 8] [nM] | IC50 [3, 9] [nM] | Compound
< 100 | < 50 | ≤ 1000 | < 500 | ≤ 1000 | < 500 | COc1nc2nc(C)nc(N[C@H](C)c3cccc(C(F)(F)C(C)(C)OC4CN(C(C)C)C4)c3F)c2cc1N1CCN(C(C)C)CC1 [Compound 242, (R)-N-(1-(3-(1,1-difluoro-2-((1-isopropylazetidin-3-yl)oxy)-2-methylpropyl)-2-fluorophenyl)ethyl)-6-(4-isopropylpiperazin-1-yl)-7-methoxy-2-methylpyrido[2,3-d]pyrimidin-4-amine]
< 100 | < 50 | ≤ 1000 | < 500 | ≤ 1000 | < 500 | COc1nc2nc(C)nc(N[C@H](C)c3cccc(C(F)(F)C(C)(C)OC4CNC4)c3F)c2cc1N1CCN(C(C)C)CC1 [Compound 243, (R)-N-(1-(3-(2-(azetidin-3-yloxy)-1,1-difluoro-2-methylpropyl)-2-fluorophenyl)ethyl)-6-(4-isopropylpiperazin-1-yl)-7-methoxy-2-methylpyrido[2,3-d]pyrimidin-4-amine]
< 100 | < 50 | ≤ 1000 | < 500 | ≤ 1000 | < 500 | Cc1nc(N[C@H](C)c2cccc(C(F)(F)C(C)(C)O)c2F)c2cc(C3(C#N)CC3)c(N3CCN(C(C)C)CC3)nc2n1 [Compound 244, (R)-1-(4-((1-(3-(1,1-difluoro-2-hydroxy-2-methylpropyl)-2-fluorophenyl)ethyl)amino)-7-(4-isopropylpiperazin-1-yl)-2-methylpyrido[2,3-d]pyrimidin-6-yl)cyclopropane-1-carbonitrile]
< 100 | < 50 | 1000 to 10000 |  | 1000 to 10000 |  | Cc1nc(N[C@H](C)c2cccc(C(F)(F)C(C)(C)O)c2F)c2cc(C3(C#N)CC3)c(OC3COC3)nc2n1 [Compound 245, (R)-1-(4-((1-(3-(1,1-difluoro-2-hydroxy-2-methylpropyl)-2-fluorophenyl)ethyl)amino)-2-methyl-7-(oxetan-3-yloxy)pyrido[2,3-d]pyrimidin-6-yl)cyclopropane-1-carbonitrile]
< 100 | < 50 | ≤ 1000 | < 500 | ≤ 1000 | < 500 | Cc1nc(N[C@H](C)c2cccc(C(F)(F)F)c2F)c2cc(C3CCS(=O)(=O)CC3)c(OC3COC3)nc2n1 [Compound 247, (R)-4-(4-((1-(2-fluoro-3-(trifluoromethyl)phenyl)ethyl)amino)-2-methyl-7-(oxetan-3-yloxy)pyrido[2,3-d]pyrimidin-6-yl)tetrahydro-2H-thiopyran 1,1-dioxide]
< 100 | < 50 | ≤ 1000 | < 500 | ≤ 1000 | < 500 | Cc1nc(N[C@H](C)c2cccc(C(F)(F)F)c2F)c2cc(C3CCS(=O)(=O)CC3)c(OC3CN(C)C3)nc2n1 [Compound 248, (R)-4-(4-((1-(2-fluoro-3-(trifluoromethyl)phenyl)ethyl)amino)-2-methyl-7-((1-methylazetidin-3-yl)oxy)pyrido[2,3-d]pyrimidin-6-yl)tetrahydro-2H-thiopyran 1,1-dioxide]
< 100 | < 50 | 1000 to 10000 |  | ≤ 1000 | < 500 | Cc1nc(N[C@H](C)c2cccc(C(F)(F)F)c2C)c2cc(C3CCS(=O)(=O)CC3)c(OC3COC3)nc2n1 [Compound 249, (R)-4-(2-methyl-4-((1-(2-methyl-3-(trifluoromethyl)phenyl)ethyl)amino)-7-(oxetan-3-yloxy)pyrido[2,3-d]pyrimidin-6-yl)tetrahydro-2H-thiopyran 1,1-dioxide]
< 100 | < 50 | > 10000 |  | 1000 to 10000 |  | Cc1nc(N[C@H](C)c2cccc(C(F)F)c2F)c2cc(C3CCS(=N)(=O)CC3)c(OCCN(C)C)nc2n1 (stereo partly drawn) [Compound 250, (R)-4-(4-((1-(3-(difluoromethyl)-2-fluorophenyl)ethyl)amino)-7-(2-(dimethylamino)ethoxy)-2-methylpyrido[2,3-d]pyrimidin-6-yl)-1-iminohexahydro-116-thiopyran 1-oxide]
< 100 | < 50 | 1000 to 10000 |  | ≤ 1000 | < 500 | C[C@@H](Nc1ncnc2nc(OCCN(C)C)c(C3CCS(=O)(=O)CC3)cc12)c1cccc(C(F)F)c1F [Compound 251, (R)-4-(4-((1-(3-(difluoromethyl)-2-fluorophenyl)ethyl)amino)-7-(2-(dimethylamino)ethoxy)pyrido[2,3-d]pyrimidin-6-yl)tetrahydro-2H-thiopyran 1,1-dioxide]
< 100 | < 50 | 1000 to 10000 |  | ≤ 1000 |  | Cc1nc(N[C@H](C)c2cccc(C(F)F)c2F)c2cc(C3CCN(C)CC3)c(OC3CN(C)C3)nc2n1 [Compound 252, (R)-N-(1-(3-(difluoromethyl)-2-fluorophenyl)ethyl)-2-methyl-7-((1-methylazetidin-3-yl)oxy)-6-(1-methylpiperidin-4-yl)pyrido[2,3-d]pyrimidin-4-amine]
< 100 | < 50 | 1000 to 10000 |  | 1000 to 10000 |  | Cc1nc(N[C@H](C)c2cccc(C(F)F)c2F)c2cc(C3CCN(C)CC3)c(OC3CNC3)nc2n1 [Compound 253, (R)-7-(azetidin-3-yloxy)-N-(1-(3-(difluoromethyl)-2-fluorophenyl)ethyl)-2-methyl-6-(1-methylpiperidin-4-yl)pyrido[2,3-d] pyrimidin-4-amine]
< 100 | < 50 | 1000 to 10000 |  | 1000 to 10000 |  | CCN1CCN(c2cc3c(N[C@H](C)c4cccc(C(F)F)c4F)nc(C)nc3nc2OC2CN(C)C2)CC1 [Compound 254, (R)-N-(1-(3-(difluoromethyl)-2-fluorophenyl)ethyl)-6-(4-ethylpiperazin-1-yl)-2-methyl-7-((1-methylazetidin-3-yl)oxy)pyrido[2,3-d]pyrimidin-4-amine]
< 100 | < 50 | 1000 to 10000 |  | ≤ 1000 |  | CCN1CCN(c2cc3c(N[C@H](C)c4cccc(C(F)F)c4F)nc(C)nc3nc2OCCN(C)C)CC1 [Compound 255, (R)-N-(1-(3-(difluoromethyl)-2-fluorophenyl)ethyl)-7-(2-(dimethylamino)ethoxy)-6-(4-ethylpiperazin-1-yl)-2-methylpyrido[2,3-d] pyrimidin-4-amine]
< 100 | < 50 | ≤ 1000 | < 500 | ≤ 1000 | < 500 | Cc1nc(N[C@H](C)c2cccc(C(F)(F)F)c2F)c2cc(N3CCS(=O)(=O)CC3)c(Cl)nc2n1 [Compound 257, (R)-4-(7-chloro-4-((1-(2-fluoro-3-(trtfluoromethyl)phenyl)ethyl)amino)-2-methylpyrido[2,3-d]pyrimidin-6-yl)thiomorpholine 1,1-dioxide]
< 100 | < 50 | ≤ 1000 | < 500 | ≤ 1000 | < 500 | Cc1nc(N[C@H](C)c2cccc(C(F)(F)[C@H](C)O)c2F)c2cc(C3(C#N)CC3)c(Cl)nc2n1 [Compound 258, 1-(7-chloro-4-(((R)-1-(3-((S)-1,1-difluoro-2-hydroxypropyl)-2-fluorophenyl)ethyl)amino)-2-methylpyrido[2,3-d]pyrimidin-6-yl)cyclopropane-1-carbonitrile]
< 100 | < 50 | ≤ 1000 | < 500 | ≤ 1000 | < 500 | Cc1nc(N[C@H](C)c2cccc(C(F)F)c2F)c2cc(N3CCS(=O)(=O)CC3)c(Cl)nc2n1 [Compound 259, (R)-4-(7-chloro-4-((1-(3-(difluoromethyl)-2-fluorophenyl)ethyl)amino)-2-methylpyrido[2,3-d]pyrimidin-6-yl)thiomorpholine 1,1-dioxide]
< 100 | < 50 | ≤ 1000 | < 500 | ≤ 1000 | < 500 | Cc1c([C@@H](C)Nc2ncnc3nc(Cl)c(C4CCS(=O)(=O)CC4)cc23)cccc1C(F)(F)F [Compound 260, (R)-4-(7-chloro-4-((1-(2-methyl-3-(trifluoromethyl)phenyl)ethyl)amino)pyrido[2,3-d]pyrimidin-6-yl)tetrahydro-2H-thiopyran 1,1-dioxide]
< 100 | < 50 | ≤ 1000 | < 500 | ≤ 1000 | < 500 | C[C@@H](Nc1ncnc2nc(Cl)c(N3CCS(=O)(=O)CC3)cc12)c1cccc(C(F)F)c1F [Compound 261, (R)-4-(7-chloro-4-((1-(3-(difluoromethyl)-2-fluorophenyl)ethyl)amino)pyrido [2,3-d]pyrimidin-6-yl)thiomorpholine 1,1-dioxide]
< 100 | < 50 | ≤ 1000 |  | ≤ 1000 | < 500 | Cc1nc(N[C@H](C)c2cccc(C(F)(F)F)c2F)c2cc(C3CCS(=O)(=O)CC3)c(Cl)nc2n1 [Compound 262, (R)-4-(7-chloro-4-((1-(2-fluoro-3-(trifluoromethyl)phenyl)ethyl)amino)-2-methylpyrido[2,3-d]pyrimidin-6-yl)tetrahydro-2H-thiopyran 1,1-dioxide]
